Residues, ends and D or L forms follow the SMILES beside them. *: point of attachment. Tos = Cc1ccc(S(=O)(=O)*)cc1; NHPh = c1ccc(N*)cc1

For the compound `CC(C)c1ccc(C2c3cc(N(C)C(=O)CC(C)(C)C)ccc3OC2(C)C)cc1` (stereo unspecified), the melting point (usually the temperature of the solid-liquid transition) is 78 to 79 °C.
The figure for `O=C(Nc1cccc(F)c1F)c1ccc(-n2nc(C(F)(F)F)cc2C2CC2)c(F)c1` is 175 to 180 °C.
Regarding `CC(=O)c1ccc(SCCOc2ccc3ccccc3c2)cc1`, the melting point fell in the range of 151 to 152 °C.
As to `Cc1ccc([N+](=O)[O-])c(C(=O)N[C@@H]2c3cc(OC(F)(F)F)ccc3OC(C)(C)[C@H]2O)c1`, the melting point was in the range of 185 to 187 °C.
The figure for `CCC(=O)C(=C1NCCCS1)[N+](=O)[O-]` is 77.5 to 79.5 °C.
The same measure for `CC(C)(C)OC(=O)N1CCN(c2ccc(NC(=O)Nc3nc(C(C)(C)C)cs3)cc2)CC1`: 123 to 124 °C.
Take `CCSc1cc(N)c([N+](=O)[O-])cc1N`: the melting point worked out at 142 °C.
The same measure for `Cc1ccnc(CSCCNc2ncc(Cc3cccnc3)c(=O)[nH]2)c1Br`: 81 to 85 °C; for `CCNC(=O)c1c(Cl)cccc1[Si](C)(C)CC`: 94 to 95 °C.
The figure for `O=[N+]([O-])c1cnc(Cl)nc1` is 78 to 80 °C.
The figure for `CCS(=O)(=O)c1cc(C(=O)NCC2CCCN2CC2CC2)c(OC)cc1N` (stereo unspecified) is 181 °C.
`CC(=O)SCC(Cc1ccccc1)C(=O)Nc1ccc(C(N)=O)cc1` (stereo unspecified) returned a melting point of 195 to 197 °C.
In turn, `C(=C\c1nc2ccccc2n1-c1nccs1)/c1ccccc1` came in with a melting point of 99 to 99.5 °C.
`Cc1ccc(-c2ccc(S(C)(=O)=O)cc2)n1-c1ccc(F)cc1` registered a melting point of 110 to 112 °C.
The same measure for `O=c1cc(CBr)c2ccc(O)cc2o1`: 182 to 184 °C.
With `COc1ccc2c(c1)CCC1C2CCC2(C)C(=O)CCC12` (stereo unspecified), the melting point lay in the range of 128 to 131 °C.
As to `O=C1c2ccccc2CN1C1CCN(c2ccc(C(O)c3ccccc3)cc2)CC1` (stereo unspecified), the melting point is 211 to 214 °C.
The same measure for `CNc1cc(Cl)cc(Cl)c1[N+](=O)[O-]`: 120 °C; for `CC(C)(C)OC(=O)c1ccc(NC2CCc3cc(NC(=O)COCc4ccccc4)c(C#N)cc32)cc1` (stereo unspecified): 194 to 195 °C; for `COC(=O)CNC(=O)CC(O)CBr` (stereo unspecified): 60 to 61 °C.
Turning to `CNS(=O)(=O)c1cn(C)c2cc(C)ccc2c1=O`, the melting point fell in the range of 237 to 240 °C.
The figure for `CN1C(=O)[C@@H](NC(=O)OC(C)(C)C)CSc2ccccc21` is 116 to 120 °C; for `Cc1cn(C2OC(CO)C(O)C2O)c(=S)[nH]c1=O` (stereo unspecified) it is 206 to 208 °C; for `CN1CCN(c2n[nH]c(=S)n2C2CCc3ccccc3C2)CC1` (stereo unspecified) it is 217 to 218 °C.
The figure for `COC(=O)c1ccccc1C(=O)n1nc(O)ccc1=O` is 144 to 145 °C; for `Cc1nnn(CC(C)n2nnc3cc4c(=O)n(C5CC5)nnc4cc3c2=O)n1` (stereo unspecified) it is 157 to 160 °C; for `C=CC(=O)N1c2ccccc2CC1C(=O)O` (stereo unspecified) it is 158 to 160 °C.
The same measure for `COC(COc1cc(-n2ncc(C(F)(F)F)c(C)c2=O)c(F)cc1Cl)OC`: 86 °C; for `O=C1NC(=O)C(Sc2ccc(Br)cc2)S1` (stereo unspecified): 115 to 117 °C.
Consider `CC(C)Cn1c(CNC(=O)OC(C)(C)C)c(-c2ccccc2F)c2cc(C(=O)O)ccc2c1=O`, for which the melting point was 213 to 214 °C.
Compound `COc1ccc2c(c1)N(CC#N)CCO2` returned a melting point of 73 to 74 °C.
The same measure for `COc1nc(C)c(C)cc1N`: 56 to 58 °C; for `CN(C)c1ccc(CNc2ncnc3c2ncn3C2OC(CO)C(O)C2O)cc1` (stereo unspecified): 170 to 171 °C.
The figure for `N#Cc1ccc(-c2ccc(F)cc2)nc1` is 149 °C; for `COc1ccc(C(=O)C=Cc2ccc(C#N)cc2)c(OC)c1OC` it is 132 to 133 °C.
The figure for `O=c1[nH]c(=O)c2cc(S(=O)(=O)O)ccc2[nH]1` is over 300 °C; for `Cc1cc(O)c(SCc2cccc(F)c2)c(=O)o1` it is 124 °C; for `O=C(O)CCSc1cccs1` it is 110 to 112 °C.
Take `CCOc1cc(C(CC(=O)O)N2Cc3ccccc3C2=O)ccc1OC` (stereo unspecified): the melting point is 194 °C.
The same measure for `CCOC(=O)C1CN(C(=O)C2=Cc3cc(OC)c(OC)cc3CCC2)CCN1` (stereo unspecified): 105 to 106 °C.
The figure for `COC(=O)c1ccc2c(c1)C(S(=O)(=O)c1ccccc1)CC(=O)CO2` (stereo unspecified) is 128 to 130 °C.
Consider `CCOC(=O)c1cn(C)c2nc(Cl)ncc2c1=O`, for which the melting point turned out to be 205 °C.
`CC(C)C1CC(=O)C(C(=O)NS(=O)(=O)c2ccc(Cl)cc2)C(=O)C1` (stereo unspecified) registered a melting point of 100 to 102 °C.
The same measure for `O=C(c1ccc(-c2ccccc2)cc1)c1cccnc1`: 112 to 115 °C; for `COc1ccccc1P1(=O)c2ccccc2CN1c1ccccc1` (stereo unspecified): 189 to 191 °C; for `Nc1ccc(OCCn2ccnc2)cc1`: 91 to 92 °C.
The figure for `CC(C)Cc1ccc(C(C)C(=N)NO)cc1` (stereo unspecified) is 75 to 78 °C.
The same measure for `Cn1nccc1[C@H](O)c1ccccc1`: 81 to 83 °C; for `COc1cc(NC2=C(Cl)C(=O)c3ccccc3C2=O)ccc1S(=O)(=O)Nc1ccccc1C`: 197 to 200 °C; for `CCC(=O)c1c(C)c(NC(=O)CC(C)(C)C)c(C)c2c1OCC2c1ccc(C(C)C)cc1` (stereo unspecified): 163 to 164 °C.
Compound `Cc1cc(C2C(=O)Oc3c2cc(C(C)(C)C)cc3C(C)(C)C)cc(C)c1O` (stereo unspecified) yielded a melting point of 225 to 228 °C.
The figure for `CC(Br)C(=O)c1cc([N+](=O)[O-])cs1` (stereo unspecified) is 82.5 to 83 °C; for `CC(C)N1CC(COc2ccc([N+](=O)[O-])c(C=O)c2)OC1=O` (stereo unspecified) it is 94 to 97 °C; for `COc1ccc(S(=O)(=O)C(C)(CC=Cc2ccccc2)C(=O)NO)cc1` (stereo unspecified) it is 162 to 164 °C.
Compound `CCCCC(=O)Nc1ccc(Br)c(-n2nc(CC)n(Cc3ccc(-c4ccccc4S(N)(=O)=O)cc3F)c2=O)c1` came in with a melting point of 223 to 225 °C.
The figure for `Cc1c(N2CCOCC2)c(F)cc2c(=O)c(C(=O)O)cn(C3CC3)c12` is 228 °C; for `CCOC(=O)c1cnc2c(SC(=O)N3CCN(c4ccccc4OC)CC3)cccn2c1=O` it is 151 to 153 °C.
The same measure for `CCOC(=O)C1=C(Cc2ccccc2)Nc2n[nH]cc2C1c1ccccc1Cl` (stereo unspecified): 247 °C; for `CN(C)C(=O)N(C)Cc1ccc(CCn2cnc3cc(-c4ccc(Cl)cc4)sc3c2=O)cc1`: 160 to 165 °C; for `CCOC(=O)C1=C(C)NN=C(CC)C1c1cccc(Cl)c1` (stereo unspecified): 112 °C.
The figure for `COc1ccc(CC(=O)c2c(O)c3cccnc3n(-c3ccccc3)c2=O)cc1OC` is 161 to 163 °C.
For the compound `C=CCNC(=O)CC(=O)C=Cc1ccccc1[N+](=O)[O-]`, the melting point lay in the range of 128 to 129 °C.
The same measure for `NCC1CC(CCC(=O)O)=NO1` (stereo unspecified): 201 °C.
The figure for `COC(=O)c1cn(C2CC2)c2c(F)c(F)c(F)cc2c1=O` is 214 to 216 °C.
The same measure for `S=C(Nc1c(Cl)cccc1Cl)N1CCN(c2cnccn2)CC1`: 225 to 227 °C.
In the case of `Cc1cc(=O)[nH]c2nc(CCCCCN3CCN(c4cccc(Cl)c4Cl)CC3)ccc12`, the melting point was in the range of 195 to 196 °C.
The figure for `COc1ccc(CN(CCCC#N)Cc2ccc(OC)cc2)cc1` is 56 to 58 °C; for `CNC(=S)NCCSCc1cncs1` it is 86 to 88 °C; for `COC(=O)C=NOCc1c(F)cccc1COc1ccccc1C` it is 108 °C.
The same measure for `NC(=O)c1ccc(-c2ccc(N)cc2)cc1`: 281 to 284 °C.
The compound `CCCC(c1cccc(NC(=O)OCc2ccccc2)c1)c1c(O)c2c(oc1=O)CCCCCC2` (stereo unspecified) gave a melting point of 64 to 67 °C.
The same measure for `O=C1NC(=O)C(Cc2ccc3c(c2)CN(c2ccccn2)CCO3)S1` (stereo unspecified): 180 to 181 °C; for `COc1ccc(S(=O)(=O)C2(C(=O)NO)CCN(Cc3ccc(F)cc3)CC2)cc1`: 176 to 178 °C.
The same measure for `CC(C)(C)OC(=O)N1CCn2c(c(C(N)=O)c(Br)c2C2CC2)C1`: 162 °C.
The same measure for `CC(C)(C)NC(=O)c1nn(-c2ccc(Cl)cc2)c2c1C1CCC2CC1`: 198 to 200 °C; for `CCCCCCCN(CCN1CCN(CCSc2nc3ccccc3o2)CC1)C(=O)Nc1c(C(C)C)cccc1C(C)C`: 110 to 111 °C.
As for `O=C(Nc1nc(=O)n(S(=O)(=O)c2ccccc2)cc1F)c1ccccc1`, the melting point was in the range of 150 to 151 °C.
The figure for `Cc1nc(-n2cc(C(=O)c3ccccc3)nn2)sc1C(=O)NCc1ccccc1` is 176 to 178 °C; for `Cc1ccc(S(=O)(=O)N[C@@H](C)C(=O)N2CCC[C@H]2C(=O)Nc2ccccc2)cc1` (Tos-Ala-Pro-NHPh) it is 145 to 147 °C; for `CCCSCc1cc2oc(S(N)(=O)=O)cc2cn1` it is 171 to 172 °C.
`CCOCCOc1ccc(-c2ccc3c(c2)C=C(C(=O)Nc2ccc(CN(C)C4CCOCC4)cc2)CCS3(=O)=O)cc1OCC`: the melting point lay within 164 to 168 °C.
The figure for `CCC12CCC(NC(=O)C=CC(=O)OC)C3Oc4c(O)ccc5c4C31CCN(CC1CC1)C2C5` (stereo unspecified) is 233 to 236 °C; for `COc1ccc2[nH]c3c(C)nc4c(c3c2c1)C(=O)CC(C)(C)C4` it is 241 to 243 °C.
The figure for `Cc1cc(C)cc(S(=O)c2cccc(N)c2C#N)c1` (stereo unspecified) is 190 to 191 °C; for `CCCc1nn(C)c(C(N)=O)c1N` it is 96 to 98 °C.
The figure for `CS(=O)(=O)c1cc(F)cc(Cc2cc3cccc(-c4cccc(C(=O)NCC(N)=O)c4)c3s2)c1` is 160 to 161 °C; for `O=c1ncc(I)cn1COc1ccc(Cl)cc1` it is 216 °C; for `O=C(O)c1cc(Cl)cc(Cl)c1OC1CCOC1=O` (stereo unspecified) it is 117 to 120 °C.
For `O=C(N[C@H]1CC[C@H](O)CC1)c1cc(F)cnc1Cl`, the melting point was in the range of 197 to 200 °C.
The figure for `CCN(CC)c1ccc(N(c2ccc(N(C)C)cc2)C2(c3ccc(N(C)C)cc3Cl)OC(=O)c3ccccc32)cc1` (stereo unspecified) is 67 to 84 °C.
The same measure for `CC(c1ccc(CCn2cnc3cc(-c4ccc(Cl)cc4)sc3c2=O)cc1)N1CCCCC1` (stereo unspecified): 175 to 179 °C.

(Values after a melting point compilation (Tetko et al.; mined from patent text by program, amines drawn as free bases though some values may be those of a salt).)
